Measured values reported in patent publication US20080262266A1, “Method for the Production of Xylyendiamine” (BASF SE, priority 2005, published 2008).
Read-outs that look alike come from different tables or passages of the source.

Tests used:
[1] = solubility of isophthalonitrile (IPN) in organic solvents; type: physicochemical; conditions: 60° C.
[2] = 70° C.; cited from earlier work

In the case of `N#Cc1cccc(C#N)c1` [IPN, 1,3-dicyanobenzene], the “solubility of IPN in MXDA” value ([1]; MXDA) is reported as 15 % by weight, the “solubility of IPN in THF” value ([1]; THF) is reported as about 19 % by weight and the “solubility of IPN in methanol” value ([1]; methanol) is reported as 18 % by weight. For the same compound, the “solubility of IPN in MXDA” value [2] was “about 20 % by weight”.
